Results on 24 compounds are retold here after patent US9512126B2, “Substituted imidazopyridazines” (Bayer Intellectual Property GmbH, priority 2012, dated 2016).

Each structure is given as a SMILES string.

This data set in a line: In vitro metabolic stability in rat hepatocytes (including calculation of hepatic in vivo blood clearance). The class given is in vitro ADME. To be noted: Han Wistar, hepatocytes (freshly isolated, suspension), read-out: CL (hepatic in vivo blood clearance) (converted). The method, then:
Investigation of In Vitro Metabolic Stability in Rat Hepatocytes (Including Calculation of Hepatic In Vivo Blood Clearance (CL))
Hepatocytes from Han Wistar rats were isolated via a 2-step perfusion method. After perfusion, the liver was carefully removed from the rat: the liver capsule was opened and the hepatocytes were gently shaken out into a Petri dish with ice-cold WME. The resulting cell suspension was filtered through sterile gaze in 50 ml falcon tubes and centrifuged at 50×g for 3 min at room temperature. The cell pellet was resuspended in 30 ml WME and centrifuged through a Percoll® gradient for 2 times at 100×g. The hepatocytes were washed again with Williams' medium E (WME) and resuspended in medium containing 5% FCS. Cell viability was determined by trypan blue exclusion.
For the metabolic stability assay liver cells were distributed in WME containing 5% FCS to glass vials at a density of 1.0×10^6 vital cells/ml. The test compound was added to a final concentration of 1 μM. During incubation, the hepatocyte suspensions were continuously shaken and aliquots were taken at 2, 8, 16, 30, 45 and 90 min, to which equal volumes of cold methanol were immediately added.
Samples were frozen at −20° C. over night, after subsequently centrifuged for 15 minutes at 3000 rpm and the supernatant was analyzed with an Agilent 1200 HPLC-system with LCMS/MS detection.
The half-life of a test compound was determined from the concentration-time plot. From the half-life the intrinsic clearances were calculated. Together with the additional parameters liver blood flow, amount of liver cells in vivo and in vitro. The hepatic in vivo blood clearance (CL) and the maximal oral bioavailability (Fmax) was calculated. The following parameter values were used: Liver blood flow—4.2 L/h/kg rat; specific liver weight—32 g/kg rat body weight; liver cells in vivo—1.1×10^8 cells/g liver, liver cells in vitro—0.5×10^6 ml.
`Cc1cc(-c2cnc3c(NCCC(F)(F)F)cc(C(F)c4cccc(F)c4)nn23)ccc1C(=O)NC1CC1` (racemic) [Example 5, (RS)—N-Cyclopropyl-4-{6-[fluoro(3-fluorophenyl)methyl]-8-[(3,3,3-trifluoropropyl)amino]imidazo[1,2-b]pyridazin-3-yl}-2-methylbenzamide]: the CLhep predicted at 1 μM was 35 mL/min/kg. The value for `C=C(c1cccc(OC)c1)c1cc(NCCC(F)(F)F)c2ncc(-c3ccc(C(=O)NC4CC4)c(C)c3)n2n1` [Example 8, N-Cyclopropyl-4-{6-[1-(3-methoxyphenyl)vinyl]-8-[(3,3,3-trifluoropropyl)amino]imidazo[1,2-b]pyridazin-3-yl}-2-methylbenzamide] was 30 mL/min/kg. As for `Cc1cc(-c2cnc3c(NCCC(F)(F)F)cc(C4(c5cccc(F)c5F)CC4)nn23)ccc1C(=O)NC1CC1` [Example 17, N-Cyclopropyl-4-{6-[1-(2,3-difluorophenyl)cyclopropyl]-8-[(3,3,3-trifluoropropyl)amino]imidazo[1,2-b]pyridazin-3-yl}-2-methylbenzamide], the CLhep predicted at 1 μM was 35 mL/min/kg. Regarding `COc1cccc(Cc2cc(NCCC(F)(F)F)c3ncc(-c4ccc(C(=O)NC5CC5)c(C)c4)n3n2)c1` [Comparative Example 4, N-cyclopropyl-4-{6-(3-methoxybenzyl)-8-[(3,3,3-trifluoropropyl)amino]imidazo[1,2-b]pyridazin-3-yl}-2-methylbenzamide, reference compound], the CLhep predicted at 1 μM was 56.7 mL/min/kg. Turning to `C=C(c1cc(NCCC(F)(F)F)c2ncc(-c3ccc(C(=O)NC4CC4)c(C)c3)n2n1)c1cc(F)ccc1O` [Example 22, N-cyclopropyl-4-{6-[1-(5-fluoro-2-hydroxyphenyl)ethenyl]-8-[(3,3,3-trifluoropropyl)amino]imidazo[1,2-b]pyridazin-3-yl}-2-methylbenzamide], the CLhep predicted at 1 μM is 50 mL/min/kg. With `COc1ccc(C(F)(F)c2cc(NCCC(F)(F)F)c3ncc(-c4ccc(C(=O)NC5CC5)c(C)c4)n3n2)cc1F` [Example 2, N-Cyclopropyl-4-{6-[difluoro(3-fluoro-4-methoxyphenyl)methyl]-8-[(3,3,3-trifluoropropyl)amino]imidazo[1,2-b]pyridazin-3-yl}-2-methylbenzamide], the CLhep predicted at 1 μM is 25 mL/min/kg. With `Cc1cc(-c2cnc3c(NCCC(F)(F)F)cc(C(C)(O)c4cccc(F)c4O)nn23)ccc1C(=O)NC1CC1` (racemic) [Example 4, (RS)—N-Cyclopropyl-4-{6-[1-(3-fluoro-2-hydroxyphenyl)-1-hydroxyethyl]-8-[(3,3,3-trifluoropropyl)amino]imidazo[1,2-b]pyridazin-3-yl}-2-methylbenzamide], the CLhep predicted at 1 μM is 45 mL/min/kg. The value for `Cc1cc(-c2cnc3c(NCCC(F)(F)F)cc(C(=O)c4cc(F)ccc4F)nn23)ccc1C(=O)NC1CC1` [Example 12, N-Cyclopropyl-4-{6-(2,5-difluorobenzoyl)-8-[(3,3,3-trifluoropropyl)amino]imidazo[1,2-b]pyridazin-3-yl}-2-methylbenzamide] was 23.3 mL/min/kg; that for `Cc1cc(-c2cnc3c(NCCC(F)(F)F)cc(C(O)c4cc(F)ccc4F)nn23)ccc1C(=O)NC1CC1` (racemic) [Example 11, (RS)—N-Cyclopropyl-4-{6-[(2,5-difluorophenyl)(hydroxy)methyl]-8-[(3,3,3-trifluoropropyl)amino]imidazo[1,2-b]pyridazin-3-yl}-2-methylbenzamide] was 38.3 mL/min/kg.

Regarding `COc1cccc(C(=O)c2cc(NCCC(F)(F)F)c3ncc(-c4ccc(C(=O)NC5CC5)c(C)c4)n3n2)c1` [Example 7, N-Cyclopropyl-4-{6-(3-methoxybenzoyl)-8-[(3,3,3-trifluoropropyl)amino]imidazo[1,2-b]pyridazin-3-yl}-2-methylbenzamide], the CLhep predicted at 1 μM is 51.7 mL/min/kg. For the compound `COc1ccc(Cc2cc(NCCC(F)(F)F)c3ncc(-c4ccc(C(=O)NC5CC5)c(C)c4)n3n2)cc1F` [Comparative Example 1, N-Cyclopropyl-4-{6-(3-fluoro-4-methoxybenzyl)-8-[(3,3,3-trifluoropropyl)amino]imidazo[1,2-b]pyridazin-3-yl}-2-methylbenzamide, reference compound], the CLhep predicted at 1 μM was 50 mL/min/kg. Consider `Cc1cc(-c2cnc3c(NCCC(F)(F)F)cc(C(=O)c4cccc(F)c4F)nn23)ccc1C(=O)NC1CC1` [Example 14, N-Cyclopropyl-4-{6-(2,3-difluorobenzoyl)-8-[(3,3,3-trifluoropropyl)amino]imidazo[1,2-b]pyridazin-3-yl}-2-methylbenzamide], for which the CLhep predicted at 1 μM is 35 mL/min/kg. `COc1ccc(C(F)(F)c2cc(NCCC(F)(F)F)c3ncc(-c4ccc(C(=O)NC5CC5)c(C)c4)n3n2)cc1` [Example 16, N-Cyclopropyl-4-{6-[difluoro(4-methoxyphenyl)methyl]-8-[(3,3,3-trifluoropropyl)amino]imidazo[1,2-b]pyridazin-3-yl}-2-methylbenzamide]: the CLhep predicted at 1 μM is 31.7 mL/min/kg. `COc1ccc(Cc2cc(NCCC(F)(F)F)c3ncc(-c4ccc(C(=O)NC5CC5)c(C)c4)n3n2)cc1` [Comparative Example 5, N-Cyclopropyl-4-{6-(4-methoxybenzyl)-8-[(3,3,3-trifluoropropyl)amino]imidazo[1,2-b]pyridazin-3-yl}-2-methylbenzamide, reference compound]: the CLhep predicted at 1 μM is 45 mL/min/kg. `Cc1cc(-c2cnc3c(NCCC(F)(F)F)cc(C(O)c4cccc(F)c4O)nn23)ccc1C(=O)NC1CC1` (racemic) [Example 3, (RS)—N-Cyclopropyl-4-{6-[(3-fluoro-2-hydroxyphenyl)(hydroxy)methyl]-8-[(3,3,3-trifluoropropyl)amino]imidazo[1,2-b]pyridazin-3-yl}-2-methylbenzamide]: the CLhep predicted at 1 μM was 56.7 mL/min/kg. Take `COc1ccc(C(=O)c2cc(NCCC(F)(F)F)c3ncc(-c4ccc(C(=O)NC5CC5)c(C)c4)n3n2)cc1` [Example 9, N-Cyclopropyl-4-{6-(4-methoxybenzoyl)-8-[(3,3,3-trifluoropropyl)amino]imidazo[1,2-b]pyridazin-3-yl}-2-methylbenzamide]: the CLhep predicted at 1 μM is 20 mL/min/kg. In the case of `Cc1cc(-c2cnc3c(NCCC(F)(F)F)cc(C(F)(F)c4cccc(F)c4F)nn23)ccc1C(=O)NC1CC1` [Example 18, N-Cyclopropyl-4-{6-[(2,3-difluorophenyl)(difluoro)methyl]-8-[(3,3,3-trifluoropropyl)amino]imidazo[1,2-b]pyridazin-3-yl}-2-methylbenzamide], the CLhep predicted at 1 μM is 16.7 mL/min/kg. To `C=C(c1ccc(OC)cc1)c1cc(NCCC(F)(F)F)c2ncc(-c3ccc(C(=O)NC4CC4)c(C)c3)n2n1` [Example 10, N-Cyclopropyl-4-{6-[1-(4-methoxyphenyl)vinyl]-8-[(3,3,3-trifluoropropyl)amino]imidazo[1,2-b]pyridazin-3-yl}-2-methylbenzamide] belongs 36.7 mL/min/kg. For the compound `Cc1cc(-c2cnc3c(NCCC(F)(F)F)cc(C4(c5cccc(F)c5)CC4)nn23)ccc1C(=O)NC1CC1` [Example 25, N-cyclopropyl-4-{6-[1-(3-fluorophenyl)cyclopropyl]-8-[(3,3,3-trifluoropropyl)amino]imidazo[1,2-b]pyridazin-3-yl}-2-methylbenzamide], the CLhep predicted at 1 μM was 33.3 mL/min/kg. As to `C=C(c1cc(NCCC(F)(F)F)c2ncc(-c3ccc(C(=O)NC4CC4)c(C)c3)n2n1)c1cccc(F)c1F` [Example 15, N-Cyclopropyl-4-{6-[1-(2,3-difluorophenyl)vinyl]-8-[(3,3,3-trifluoropropyl)amino]imidazo[1,2-b]pyridazin-3-yl}-2-methylbenzamide], the CLhep predicted at 1 μM is 33.3 mL/min/kg.

Take `C=C(c1cccc(F)c1)c1cc(NCCC(F)(F)F)c2ncc(-c3ccc(C(=O)NC4CC4)c(C)c3)n2n1` [Example 24, N-cyclopropyl-4-{6-[1-(3-fluorophenyl)ethenyl]-8-[(3,3,3-trifluoropropyl)amino]imidazo[1,2-b]pyridazin-3-yl}-2-methylbenzamide]: the CLhep predicted at 1 μM is 36.7 mL/min/kg. With `C=C(c1ccc(OC)c(F)c1)c1cc(NCCC(F)(F)F)c2ncc(-c3ccc(C(=O)NC4CC4)c(C)c3)n2n1` [Example 1, N-Cyclopropyl-4-{6-[1-(3-fluoro-4-methoxyphenyl)ethenyl]-8-[(3,3,3-trifluoropropyl)amino]imidazo[1,2-b]pyridazin-3-yl}-2-methylbenzamide], the CLhep predicted at 1 μM was 43.3 mL/min/kg. With `Cc1cc(-c2cnc3c(NCCC(F)(F)F)cc(Cc4cccc(F)c4O)nn23)ccc1C(=O)NC1CC1` [Comparative Example 2, N-Cyclopropyl-4-{6-(3-fluoro-2-hydroxybenzyl)-8-[(3,3,3-trifluoropropyl)amino]imidazo[1,2-b]pyridazin-3-yl}-2-methylbenzamide, reference compound], the CLhep predicted at 1 μM was 68.3 mL/min/kg. Take `Cc1cc(-c2cnc3c(NCCC(F)(F)F)cc(C4(c5cc(F)ccc5O)CC4)nn23)ccc1C(=O)NC1CC1` [Example 23, N-cyclopropyl-4-{6-[1-(5-fluoro-2-hydroxyphenyl)cyclopropyl]-8-[(3,3,3-trifluoropropyl)amino]imidazo[1,2-b]pyridazin-3-yl}-2-methylbenzamide]: the CLhep predicted at 1 μM is 41.7 mL/min/kg.
